Assay results from patent US12281109B2 (Merck Sharp & Dohme LLC, priority 2019, dated 2025).

Assays:
human HDAC2 = human HDAC2 (Homo sapiens, UniProt Q92769); test: Human HDAC enzyme inhibitor Fluor-De-Lys assay, HDAC2
Procedure: (§1) Human HDAC Enzyme Inhibitor Fluor-De-Lys Assay Materials
(§2) The histone deacetylase activities of HDAC1, HDAC2, HDAC3, HDAC6, and HDAC8 were measured in modified FLUOR DE LYS assays in 384-well format. In this assay, HDAC enzymes are initially incubated with an F-acetyl (or -trifluoroacetyl)-L-lysine-containing substrate with a C-terminal amide having aminomethylcoumarin as the amine component. HDACs cleave the F-acetyl group, rendering the resulting product susceptible to AMC cleavage by trypsin. The released AMC is then detected by its fluorescence.
(§3) The HDAC3/SMRT assay employed buffer B, consisting of 20 mM HEPES, pH 8.0, 1 mM MgCl2, 50 mM NaCl, 2.7 mM KCl, 0.05% BSA, 0.005% Tween 20, and 10 μM IP4. […] The HDAC8 assay employed buffer D, consisting of 20 mM HEPES, pH 8.0, 1 mM MgCl2, 100 mM NaCl, 20 mM KCl, 0.1% n-octyl-β-D-glucoside (Anatrace) and 0.05% BSA. All steps were performed at room temperature (23° C.). The assay was performed by pre-incubating serial dilutions of test compounds with the target HDAC prior to initiation with substrate. Each compound was titrated in a 10-point dose response, using a 1:3 fold dilution scheme, with 0.15 ul of solution added by ECHO555 to the plate, followed by the addition of 20 μl of the appropriate HDAC isoform diluted in appropriate assay buffer. […] Final conditions used for each assay were: 1. […] The reactions were stopped and developed by addition of 30 ul of HDAC developer solution containing a saturating level of HDAC inhibitor as follows: 1.

human HDAC1 = human HDAC1 (Homo sapiens, UniProt Q13547); test: Human HDAC enzyme inhibitor Fluor-De-Lys assay, HDAC1
Procedure: as §1, §2, §3

[1] = target: human HDAC3/SMRT heterodimer (Homo sapiens, UniProt O15379); test: Human HDAC enzyme inhibitor Fluor-De-Lys assay, HDAC3/SMRT
Procedure: as §1, §2, §3

HDAC6 = target: T1, HDAC6 (Homo sapiens, UniProt Q9UBN7); test: Human HDAC enzyme inhibitor Fluor-De-Lys assay, HDAC6; format: biochemical; details: 1.3 nM total enzyme, 2.5 μM substrate BML-KI104, 3 hours pre-incubation, 60 min reaction, 23° C., 4-parameter fit
T1 sequence (Q9UBN7 1-1215): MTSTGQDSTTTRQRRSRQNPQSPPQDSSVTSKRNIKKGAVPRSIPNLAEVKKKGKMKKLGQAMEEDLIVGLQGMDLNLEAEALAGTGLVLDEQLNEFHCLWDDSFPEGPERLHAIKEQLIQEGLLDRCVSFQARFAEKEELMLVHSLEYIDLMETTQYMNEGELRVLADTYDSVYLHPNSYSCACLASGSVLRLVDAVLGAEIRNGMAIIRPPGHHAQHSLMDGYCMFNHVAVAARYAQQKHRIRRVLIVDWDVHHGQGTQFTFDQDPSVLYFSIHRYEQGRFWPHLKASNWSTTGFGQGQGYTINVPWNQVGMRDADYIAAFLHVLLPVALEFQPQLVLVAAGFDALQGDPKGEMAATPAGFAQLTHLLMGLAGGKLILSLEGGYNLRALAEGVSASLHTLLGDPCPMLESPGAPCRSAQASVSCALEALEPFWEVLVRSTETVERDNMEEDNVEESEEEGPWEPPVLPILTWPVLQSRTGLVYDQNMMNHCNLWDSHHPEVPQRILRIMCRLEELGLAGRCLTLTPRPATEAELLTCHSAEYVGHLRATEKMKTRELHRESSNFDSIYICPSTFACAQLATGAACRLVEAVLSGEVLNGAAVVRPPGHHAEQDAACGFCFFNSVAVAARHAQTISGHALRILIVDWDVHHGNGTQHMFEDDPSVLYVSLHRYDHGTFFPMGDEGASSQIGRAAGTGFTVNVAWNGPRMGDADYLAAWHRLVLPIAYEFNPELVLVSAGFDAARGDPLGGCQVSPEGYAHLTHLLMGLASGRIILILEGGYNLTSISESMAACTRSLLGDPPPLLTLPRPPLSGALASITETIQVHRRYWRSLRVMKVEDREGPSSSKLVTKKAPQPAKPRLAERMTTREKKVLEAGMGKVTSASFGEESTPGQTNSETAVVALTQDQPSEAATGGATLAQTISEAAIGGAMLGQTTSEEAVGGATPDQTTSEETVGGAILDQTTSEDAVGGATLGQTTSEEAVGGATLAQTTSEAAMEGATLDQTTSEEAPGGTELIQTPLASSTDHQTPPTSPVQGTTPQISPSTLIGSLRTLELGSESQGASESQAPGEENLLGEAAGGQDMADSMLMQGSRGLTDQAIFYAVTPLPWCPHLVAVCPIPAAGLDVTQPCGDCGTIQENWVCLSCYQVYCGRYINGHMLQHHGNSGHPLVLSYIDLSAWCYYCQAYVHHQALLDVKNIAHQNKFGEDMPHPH
Source text: as §1
Recombinant human HDAC8 (BML-SE145-0100) and HDAC10 (BML-SE559-0050) enzymes, HDAC substrates BML-KI104 and BML-K1178, and HDAC developer solutions BML-KI105 and BML-KI176 were purchased from Enzo Life Sciences. […] HDAC inhibitor suberoylanilide hydroxamic acid (SAHA) was obtained from Indofine and trichostatin A (TSA) was obtained from Sigma-Aldrich.
as §2, §3

Sequence of human HDAC2 (Q92769 whole entry): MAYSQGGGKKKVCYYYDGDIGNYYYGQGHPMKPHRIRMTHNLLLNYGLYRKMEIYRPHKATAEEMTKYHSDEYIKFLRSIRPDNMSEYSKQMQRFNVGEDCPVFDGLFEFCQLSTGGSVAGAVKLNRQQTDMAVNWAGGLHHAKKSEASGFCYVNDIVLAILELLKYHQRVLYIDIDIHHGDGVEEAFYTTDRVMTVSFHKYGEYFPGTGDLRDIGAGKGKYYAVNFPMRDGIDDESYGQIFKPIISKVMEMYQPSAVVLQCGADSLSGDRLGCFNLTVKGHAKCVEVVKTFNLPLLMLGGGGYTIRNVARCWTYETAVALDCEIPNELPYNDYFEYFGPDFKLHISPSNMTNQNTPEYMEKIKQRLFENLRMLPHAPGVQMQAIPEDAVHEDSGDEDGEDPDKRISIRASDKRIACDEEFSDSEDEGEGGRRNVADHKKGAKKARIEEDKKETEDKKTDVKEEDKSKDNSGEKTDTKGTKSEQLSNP
Sequence of human HDAC1 (Q13547 whole entry): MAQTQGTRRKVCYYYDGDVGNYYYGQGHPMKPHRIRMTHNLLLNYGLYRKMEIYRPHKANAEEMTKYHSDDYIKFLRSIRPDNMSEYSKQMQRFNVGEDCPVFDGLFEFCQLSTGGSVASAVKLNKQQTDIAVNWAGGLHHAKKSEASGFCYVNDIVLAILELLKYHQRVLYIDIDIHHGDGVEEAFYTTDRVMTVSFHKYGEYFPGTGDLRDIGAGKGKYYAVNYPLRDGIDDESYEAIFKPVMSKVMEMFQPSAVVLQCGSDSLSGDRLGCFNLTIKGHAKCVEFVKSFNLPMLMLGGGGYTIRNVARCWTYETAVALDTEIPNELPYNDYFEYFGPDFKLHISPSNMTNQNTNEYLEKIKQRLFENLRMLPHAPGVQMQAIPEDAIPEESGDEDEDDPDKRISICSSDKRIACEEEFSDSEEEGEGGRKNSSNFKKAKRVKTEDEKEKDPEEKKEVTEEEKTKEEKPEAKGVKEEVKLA
Sequence of human HDAC3/SMRT heterodimer (O15379 whole entry): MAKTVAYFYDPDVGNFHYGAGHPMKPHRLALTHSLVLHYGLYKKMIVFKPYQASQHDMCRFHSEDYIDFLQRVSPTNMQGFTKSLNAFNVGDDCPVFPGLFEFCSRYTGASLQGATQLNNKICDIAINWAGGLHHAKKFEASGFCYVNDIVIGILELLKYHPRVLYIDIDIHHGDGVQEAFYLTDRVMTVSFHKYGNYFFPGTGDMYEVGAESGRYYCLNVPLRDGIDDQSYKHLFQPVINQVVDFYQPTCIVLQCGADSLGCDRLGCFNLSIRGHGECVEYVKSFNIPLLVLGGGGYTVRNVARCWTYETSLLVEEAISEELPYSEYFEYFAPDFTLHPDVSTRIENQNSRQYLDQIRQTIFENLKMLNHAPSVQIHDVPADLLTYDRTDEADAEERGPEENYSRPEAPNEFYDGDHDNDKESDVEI
Sequence of human HDAC3/SMRT heterodimer (Q9Y618 1-899 partner limits assumed): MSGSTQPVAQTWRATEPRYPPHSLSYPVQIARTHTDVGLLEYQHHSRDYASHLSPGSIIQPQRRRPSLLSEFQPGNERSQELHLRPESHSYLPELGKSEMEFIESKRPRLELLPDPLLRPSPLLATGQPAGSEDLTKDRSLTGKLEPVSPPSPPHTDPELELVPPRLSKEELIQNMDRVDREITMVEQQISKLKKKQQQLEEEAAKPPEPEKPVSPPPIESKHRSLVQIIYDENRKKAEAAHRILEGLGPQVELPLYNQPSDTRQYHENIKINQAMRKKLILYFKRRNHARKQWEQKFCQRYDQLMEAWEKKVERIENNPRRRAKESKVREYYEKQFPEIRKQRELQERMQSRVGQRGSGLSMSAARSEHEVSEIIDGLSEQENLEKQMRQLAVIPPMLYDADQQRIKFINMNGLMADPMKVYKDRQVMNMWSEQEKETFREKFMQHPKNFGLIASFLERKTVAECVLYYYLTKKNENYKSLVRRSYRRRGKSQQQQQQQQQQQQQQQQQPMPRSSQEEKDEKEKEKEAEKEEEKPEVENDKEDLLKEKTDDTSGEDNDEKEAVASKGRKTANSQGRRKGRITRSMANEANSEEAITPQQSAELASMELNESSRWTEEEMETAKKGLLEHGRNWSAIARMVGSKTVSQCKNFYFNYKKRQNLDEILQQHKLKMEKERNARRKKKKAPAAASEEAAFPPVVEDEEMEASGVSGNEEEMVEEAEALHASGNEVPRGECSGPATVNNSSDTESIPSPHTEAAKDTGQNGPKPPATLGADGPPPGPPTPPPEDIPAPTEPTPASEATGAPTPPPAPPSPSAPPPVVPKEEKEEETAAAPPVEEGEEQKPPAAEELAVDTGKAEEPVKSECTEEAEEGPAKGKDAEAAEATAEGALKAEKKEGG

SMILES | IC50 (human HDAC2) [µM] | IC50 (human HDAC1) [µM] | IC50 [1] [µM] | IC50 (HDAC6) [µM]
COc1ccc2[nH]c(C)c(C(C)C(=O)N[C@@H](CCCCNC(=O)c3ccccc3SC)c3ncc(-c4cc5ccccc5nc4OC)[nH]3)c2c1 (stereo partly drawn) [Example 58, N-((5S)-5-(2-(5-methoxy-2-methyl-1H-indol-3-yl)propanamido)-5-(5-(2-methoxyquinolin-3-yl)-1H-imidazol-2-yl)pentyl)-2-(methylthio)benzamide] | ≥ 45 | ≥ 45 | 0.379 | 
Nc1cc(F)c(F)cc1C(=O)NCCCC[C@H](NC(=O)c1cncs1)c1ncc(-c2ccc3ccccc3c2)[nH]1 [Example 27, (S)-N-(5-(2-amino-4,5-difluorobenzamido)-1-(5-(naphthalen-2-yl)-1H-imidazol-2-yl)pentyl)thiazole-5-carboxamide] |  |  |  | ≥ 45
Nc1ccc(F)c(F)c1C(=O)NCCCC[C@H](NC(=O)c1cncs1)c1ncc(-c2ccc3ccccc3c2)[nH]1 [Example 9, (S)-N-(5-(6-amino-2,3-difluorobenzamido)-1-(5-(naphthalen-2-yl)-1H-imidazol-2-yl)pntyl)thiazole-5-carboxamide] | 15.7 | 7.88 | 0.1 | ≥ 45
COc1nc2ccccc2cc1-c1cnc(C2(CCCCNC(=O)c3ccc(F)cc3SC)CCC(=O)N2)[nH]1 (centres unmarked) [Example 63] | ≥ 45 | ≥ 45 | 0.958 | 
COc1nc2ccccc2cc1-c1cnc([C@H](CCCCNC(=O)c2nc(C)ccc2O)NC(=O)c2cncs2)[nH]1 [Example 61, (S)-N-(5-(3-hydroxy-6-methylpicolinamido)-1-(5-(2-methoxyquinolin-3-yl)-1H-imidazol-2-yl)pentyl)thiazole-5-carboxamide] |  |  |  | ≥ 45
CSc1cc(F)ccc1C(=O)NCCCC[C@H](NC(=O)c1cncs1)c1ncc(-c2ccc3ccccc3c2)[nH]1 [Example 5, (S)-N-(5-(4-fluoro-2-(methylthio)benzamido)-1-(5-(naphthalen-2-yl)-1H-imidazol-2-yl)pentyl)thiazole-5-carboxamide] |  |  |  | ≥ 45
CCN1CCC2(CC1)C[C@@H]2C(=O)N[C@@H](CCCCNC(=O)c1ccccc1SC)c1ncc(-c2cc3ccccc3nc2OC)[nH]1 [Example 60, (S)-6-ethyl-N-((S)-1-(5-(2-methoxyquinolin-3-yl)-1H-imidazol-2-yl)-5-(2-(methylthio)benzamido)pentyl)-6-azaspiro[2.5]octane-1-carboxamide] |  |  |  | 11.6
CSc1cc([N+](=O)[O-])ccc1C(=O)NCCCC[C@H](NC(=O)c1cncs1)c1ncc(-c2ccc3ccccc3c2)[nH]1 [Example 43, (S)-N-(5-(2-(methylthio)-4-nitrobenzamido)-1-(5-(naphthalen-2-yl)-1H-imidazol-2-yl)pentyl)thiazole-5-carboxamide] | ≥ 45 | ≥ 45 | 7 | 
COc1nc2ccccc2cc1-c1cnc(C2(CCCCNC(=O)c3ccccc3SC)CCC(=O)N2)[nH]1 (centres unmarked) [Example 62, N-(4-(2-(5-(2-methoxyquinolin-3-yl)-1H-imidazol-2-yl)-5-oxopyrrolidin-2-yl)butyl)-2-(methylthio)benzamide] | ≥ 45 | ≥ 45 | 0.671 | 
